Assay results reported in ChEMBL document CHEMBL2010746, “Synthesis, resolution and anticonvulsant activity of chiral N-1'-ethyl,N-3'-(1-phenylethyl)-(R,S)-2'H,3H,5'H-spiro-(2-benzofuran-1,4'-imidazolidine)-2',3,5'-trione diastereomers” (2012).
Calls of active or inactive are those of the source. The calls are words filed in the database; no cut-off is given here.

Assays:
Mus musculus [1] = test: Anticonvulsant activity in mouse assessed as decrease in pentylenetetrazol-induced convulsions at 300 mg/kg, ip at 30 mins; type: functional, organism-based; design: dose 300 mg/kg
Mus musculus [2] = test: Anticonvulsant activity in ip dosed mouse assessed as decrease in pentylenetetrazol-induced convulsions at 30 mins; type: functional; details: 0.5 h
Mus musculus [3] = test: Anticonvulsant activity in mouse assessed as decrease in pentylenetetrazol-induced convulsions up to 300 mg/kg, ip at 30 mins; type: functional, organism-based; design: dose 300 mg/kg

Row | Structure (SMILES) | ED50 (Mus musculus [2]) | Activity (Mus musculus [3]) | other results
1 | CCN1C(=O)N([C@H](C)c2ccccc2)[C@]2(OC(=O)c3ccccc32)C1=O | – | – | Activity (Mus musculus [1]): Active
2 | CCN1C(=O)N([C@@H](C)c2ccccc2)[C@@]2(OC(=O)c3ccccc32)C1=O | 300 mg/kg | – | –
3 | CCN1C(=O)N([C@@H](C)c2ccccc2)[C@]2(OC(=O)c3ccccc32)C1=O | – | inactive | –
4 | CCN1C(=O)N([C@H](C)c2ccccc2)[C@@]2(OC(=O)c3ccccc32)C1=O | – | inactive | –
5 | CCC1(c2ccccc2)C(=O)NC(=O)NC1=O [PHENOBARBITAL] | 25 mg/kg | – | –
